Measured values taken from ChEMBL document CHEMBL3399942, “Identification and optimization of pyridazinones as potent and selective c-Met kinase inhibitors” (Bioorg Med Chem Lett, 2015).
Active and inactive are the calls of the source. The rule behind the calls is not given here.

How the values were obtained:
[1] = Lipophilicity, log D of the compound; format: physicochemical; conditions: octanol/water
Phosphodiesterase 3 [2] = target: T1, Phosphodiesterase 3 (Homo sapiens, UniProt Q14432+Q13370); assay: Inhibition of PDE3 (unknown origin) at 10 uM; format: protein assay
Phosphodiesterase 4 [3] = target: T2, Phosphodiesterase 4 (Homo sapiens, UniProt P27815+Q08499+Q07343+Q08493); assay: Inhibition of PDE4 (unknown origin) at 10 uM; format: protein assay
[4] = Aqueous solubility of the compound in phosphate buffer at pH 7.4; format: physicochemical
[5] = Clearance in NMRI mouse at 0.2 mg/kg, iv and 0.5 mg/kg, po by LC/MS/MS analysis; format: ADME, organism-based; conditions: in vivo
[6] = Oral bioavailability in NMRI mouse at 0.5 mg/kg by LC/MS/MS analysis; format: ADME, organism-based; conditions: in vivo
[7] = Clearance in NMRI mouse at 2 mg/kg, iv after 24 hrs by LC/MS/MS analysis; format: ADME, organism-based; set-up: dose 2 mg/kg, route intravenous; conditions: in vivo
[8] = Volume of distribution at steady state in NMRI mouse at 2 mg/kg, iv after 24 hrs by LC/MS/MS analysis; format: ADME, organism-based; set-up: dose 2 mg/kg, route intravenous; conditions: in vivo, read-out: Vdss
[9] = Half life in NMRI mouse at 2 mg/kg, iv after 24 hrs by LC/MS/MS analysis; format: ADME, organism-based; set-up: dose 2 mg/kg, route intravenous; conditions: in vivo
[10] = Cmax in NMRI mouse at 5 mg/kg, po after 24 hrs by LC/MS/MS analysis; format: ADME, organism-based; set-up: dose 5 mg/kg, route oral; conditions: in vivo
[11] = Oral bioavailability in NMRI mouse at 5 mg/kg after 24 hrs by LC/MS/MS analysis; format: ADME, organism-based; conditions: in vivo
[12] = Clearance in Wistar rat at 3 mg/kg, iv after 24 hrs by LC/MS/MS analysis; format: ADME, organism-based; set-up: dose 3 mg/kg, route intravenous; conditions: in vivo
[13] = Volume of distribution at steady state in Wistar rat at 3 mg/kg, iv after 24 hrs by LC/MS/MS analysis; format: ADME, organism-based; set-up: dose 3 mg/kg, route intravenous; conditions: in vivo, read-out: Vdss
[14] = Half life in Wistar rat at 3 mg/kg, iv after 24 hrs by LC/MS/MS analysis; format: ADME, organism-based; set-up: dose 3 mg/kg, route intravenous; conditions: in vivo
[15] = Cmax in Wistar rat at 6 mg/kg, po after 24 hrs by LC/MS/MS analysis; format: ADME, organism-based; set-up: dose 6 mg/kg, route oral; conditions: in vivo
[16] = Oral bioavailability in Wistar rat at 6 mg/kg after 24 hrs by LC/MS/MS analysis; format: ADME, organism-based; conditions: in vivo
[17] = Clearance in cynomolgus monkey at 2 mg/kg, iv after 72 hrs by LC/MS/MS analysis; format: ADME, organism-based, Macaca fascicularis; set-up: dose 2 mg/kg, route intravenous; conditions: in vivo
[18] = Volume of distribution at steady state in cynomolgus monkey at 2 mg/kg, iv after 72 hrs by LC/MS/MS analysis; format: ADME, organism-based, Macaca fascicularis; set-up: dose 2 mg/kg, route intravenous; conditions: in vivo, read-out: Vdss
[19] = Half life in cynomolgus monkey at 2 mg/kg, iv after 72 hrs by LC/MS/MS analysis; format: ADME, organism-based, Macaca fascicularis; set-up: dose 2 mg/kg, route intravenous; conditions: in vivo
[20] = Cmax in cynomolgus monkey at 5 mg/kg, po after 72 hrs by LC/MS/MS analysis; format: ADME, organism-based, Macaca fascicularis; set-up: dose 5 mg/kg, route oral; conditions: in vivo
[21] = Oral bioavailability in cynomolgus monkey at 5 mg/kg after 72 hrs by LC/MS/MS analysis; format: ADME, organism-based, Macaca fascicularis; conditions: in vivo
[22] = Clearance in beagle dog at 2 mg/kg, iv after 48 hrs by LC/MS/MS analysis; format: ADME, organism-based, Canis lupus familiaris; set-up: dose 2 mg/kg, route intravenous; conditions: in vivo
[23] = Volume of distribution at steady state in beagle dog at 2 mg/kg, iv after 48 hrs by LC/MS/MS analysis; format: ADME, organism-based, Canis lupus familiaris; set-up: dose 2 mg/kg, route intravenous; conditions: in vivo, read-out: Vdss
[24] = Half life in beagle dog at 2 mg/kg, iv after 48 hrs by LC/MS/MS analysis; format: ADME, organism-based, Canis lupus familiaris; set-up: dose 2 mg/kg, route intravenous; conditions: in vivo
[25] = Cmax in beagle dog at 5 mg/kg, po after 48 hrs by LC/MS/MS analysis; format: ADME, organism-based, Canis lupus familiaris; set-up: dose 5 mg/kg, route oral; conditions: in vivo
[26] = Oral bioavailability in beagle dog at 5 mg/kg after 48 hrs by LC/MS/MS analysis; format: ADME, organism-based, Canis lupus familiaris; conditions: in vivo
[27] = Fraction unbound in NMRI mouse plasma; format: ADME, cell-free
[28] = Fraction unbound in Wistar rat plasma; format: ADME, cell-free
[29] = Fraction unbound in cynomolgus monkey plasma; format: ADME, cell-free, Macaca fascicularis
[30] = Fraction unbound in beagle dog plasma; format: ADME, cell-free, Canis lupus familiaris
[31] = Fraction unbound in human plasma; format: ADME, cell-free
[32] = Plasma protein binding in human at 10 uM; format: ADME, cell-free; conditions: read-out: PPB (converted)
[33] = Plasma protein binding in human at 0.3 uM; format: ADME, cell-free; conditions: read-out: PPB (converted)
EBC-1 = assay: Antitumor activity against human EBC1 cells xenografted in CD-1 nude mouse assessed as tumor regression at 15 mg/kg, po qd administered for 5 days on and 2 days off up to 32 days; format: functional, organism-based; set-up: dose 15 mg/kg
[34] = Toxicity in po dosed CD-1 nude mouse xenografted with human EBC1 cells administered qd for 5 days on and 2 days off up to 32 days; format: organism-based; conditions: in vivo
Mus musculus = assay: Toxicity in CD-1 nude mouse xenografted with human EBC1 cells assessed as body weight loss at 15 mg/kg, po qd administered for 5 days on and 2 days off up to 32 days; format: organism-based; set-up: dose 15 mg/kg, route oral; conditions: in vivo
[35] = target: T3, Hepatocyte growth factor receptor (Homo sapiens, UniProt P08581); assay: Inhibition of GST-His6-tagged recombinant human c-Met kinase domain (956 to 1390) after 60 mins by anoff-chip mobility shift assay
[36] = target: T3, Hepatocyte growth factor receptor; assay: Inhibition of c-Met kinase in human A549 cells assessed as inhibition of phosphorylation after 45 mins by electrochemiluminescence assay
Phosphodiesterase 3 [37] = target: T1, Phosphodiesterase 3; assay: Inhibition of PDE3 (unknown origin); format: protein assay
Phosphodiesterase 4 [38] = target: T2, Phosphodiesterase 4; assay: Inhibition of PDE4 (unknown origin); format: protein assay

T3 sequence (P08581 whole entry, the tested form may be a part): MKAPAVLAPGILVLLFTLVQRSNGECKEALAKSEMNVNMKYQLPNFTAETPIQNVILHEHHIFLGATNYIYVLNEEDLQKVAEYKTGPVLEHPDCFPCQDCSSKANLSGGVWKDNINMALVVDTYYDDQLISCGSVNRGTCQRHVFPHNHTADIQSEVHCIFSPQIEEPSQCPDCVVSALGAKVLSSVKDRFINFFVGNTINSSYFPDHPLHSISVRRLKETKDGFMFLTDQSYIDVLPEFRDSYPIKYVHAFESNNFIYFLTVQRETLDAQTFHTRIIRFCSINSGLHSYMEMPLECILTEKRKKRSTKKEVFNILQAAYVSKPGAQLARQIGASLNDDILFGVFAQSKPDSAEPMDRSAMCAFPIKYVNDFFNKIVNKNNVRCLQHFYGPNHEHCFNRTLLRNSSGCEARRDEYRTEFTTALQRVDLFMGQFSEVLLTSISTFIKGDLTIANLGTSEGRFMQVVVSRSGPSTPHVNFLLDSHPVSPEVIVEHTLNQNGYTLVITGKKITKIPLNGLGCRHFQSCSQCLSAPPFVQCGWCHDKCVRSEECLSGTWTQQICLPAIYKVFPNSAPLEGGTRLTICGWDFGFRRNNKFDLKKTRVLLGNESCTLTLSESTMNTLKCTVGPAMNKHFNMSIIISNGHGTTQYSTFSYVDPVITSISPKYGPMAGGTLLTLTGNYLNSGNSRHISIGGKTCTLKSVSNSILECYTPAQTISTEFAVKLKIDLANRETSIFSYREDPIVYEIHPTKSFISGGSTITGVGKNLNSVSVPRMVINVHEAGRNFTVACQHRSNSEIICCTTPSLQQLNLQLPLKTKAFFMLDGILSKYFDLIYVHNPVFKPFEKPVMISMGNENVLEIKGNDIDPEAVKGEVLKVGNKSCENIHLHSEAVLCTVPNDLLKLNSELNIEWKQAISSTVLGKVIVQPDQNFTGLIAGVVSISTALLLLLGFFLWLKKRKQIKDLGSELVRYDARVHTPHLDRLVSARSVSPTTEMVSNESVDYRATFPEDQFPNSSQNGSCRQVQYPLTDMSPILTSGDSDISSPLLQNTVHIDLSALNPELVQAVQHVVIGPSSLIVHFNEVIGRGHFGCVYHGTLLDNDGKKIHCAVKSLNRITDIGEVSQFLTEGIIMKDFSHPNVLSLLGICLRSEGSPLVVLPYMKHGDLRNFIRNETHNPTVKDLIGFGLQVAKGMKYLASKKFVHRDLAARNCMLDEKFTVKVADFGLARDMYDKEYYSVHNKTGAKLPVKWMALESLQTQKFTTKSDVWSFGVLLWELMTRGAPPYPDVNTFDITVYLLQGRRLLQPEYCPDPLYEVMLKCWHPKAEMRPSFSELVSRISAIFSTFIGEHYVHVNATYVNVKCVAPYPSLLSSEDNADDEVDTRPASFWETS

SMILES: CN(C)CCCOc1cnc(-c2cccc(Cn3nc(-c4cccnc4)ccc3=O)c2)nc1
- logD [1]: 1.4

SMILES: CN(C)CCCOC(=O)Nc1cccc(Cn2nc(-c3ccc(F)cc3)ccc2=O)c1
- inhibition (Phosphodiesterase 3 [2]): 28%
- inhibition (Phosphodiesterase 4 [3]): 8%

SMILES: Cc1cnc(-c2cccc(Cn3nc(-c4cc(F)cc(F)c4)ccc3=O)c2)nc1
- solubility [4]: < 1 µg/mL

SMILES: O=C(Nc1cccc(Cn2nc(-c3cc(F)cc(F)c3)ccc2=O)c1)OCCCN1CCOCC1
- inhibition (Phosphodiesterase 3 [2]): 8%
- inhibition (Phosphodiesterase 4 [3]): 19%

SMILES: CN1CCC(COc2cnc(-c3cccc(Cn4nc(-c5cccc(C#N)c5)ccc4=O)c3)nc2)CC1 [TEPOTINIB]
- clearance [5]: 60 mL/min/kg
- bioavailability [6]: 34%
- clearance [7]: 66.7 mL/min/kg
- Vd [8]: 8.2 L/kg
- half-life [9]: 2.1 h
- Cmax [10]: 62.2 ng/mL
- bioavailability [11]: 41%
- clearance [12]: 78.3 mL/min/kg
- Vd [13]: 20 L/kg
- half-life [14]: 3.2 h
- Cmax [15]: 66 ng/mL
- bioavailability [16]: 55%
- clearance [17]: 12.2 mL/min/kg
- Vd [18]: 9.6 L/kg
- half-life [19]: 10 h
- Cmax [20]: 55.5 ng/mL
- bioavailability [21]: 25%
- clearance [22]: 55 mL/min/kg
- Vd [23]: 26 L/kg
- half-life [24]: 7.6 h
- Cmax [25]: 22.4 ng/mL
- bioavailability [26]: 22%
- fraction unbound [27]: 0.028
- fraction unbound [28]: 0.041
- fraction unbound [29]: 0.052
- fraction unbound [30]: 0.064
- fraction unbound [31]: 0.023
- fraction unbound at 10 µM [32]: 0.034
- fraction unbound at 0.3 µM [33]: 0.016
- Activity (EBC-1): Active
- MTD [34]: 15 mg/kg
- Activity (Mus musculus): Non-toxic

SMILES: COc1cccc(-c2ccc(=O)n(Cc3cccc(-c4ncc(OCCCN(C)C)cn4)c3)n2)c1
- logD [1]: 2.6

SMILES: CCN(CC)CCCOC(=O)Nc1cccc(CN2N=C(c3ccc(OC)c(OC)c3)CSC2=O)c1
- IC50 [35]: 400 nM
- IC50 [36]: 1100 nM
- clearance [5]: 100 mL/min/kg
- bioavailability [6]: < 5%
- IC50 (Phosphodiesterase 3 [37]): 1500 nM
- IC50 (Phosphodiesterase 4 [38]): 63 nM

SMILES: CN(C)CCCOC(=O)Nc1cccc(Cn2nc(-c3cc(F)cc(F)c3)ccc2=O)c1
- clearance [5]: 51.7 mL/min/kg
- bioavailability [6]: 30%

SMILES: CCN(CC)CCCOC(=O)Nc1cccc(CN2N=C(c3ccc(Cl)cc3)CSC2=O)c1
- IC50 [35]: 90 nM
- inhibition (Phosphodiesterase 3 [2]): 1%
- inhibition (Phosphodiesterase 4 [3]): 49%

SMILES: CN(C)CCCOc1cnc(-c2cccc(Cn3nc(-c4cccc(F)c4)ccc3=O)c2)nc1
- IC50 [35]: 6.5 nM
- IC50 [36]: 140 nM
- logD [1]: 2.6

SMILES: CN(C)CCCOC(=O)Nc1cccc(CN2N=C(c3cc(F)cc(F)c3)CSC2=O)c1
- IC50 [35]: 23 nM
- IC50 [36]: 78 nM
- clearance [5]: 56.7 mL/min/kg
- bioavailability [6]: 25%

SMILES: Cc1nc(-c2cccc(Cn3nc(-c4cc(F)cc(F)c4)ccc3=O)c2)no1
- IC50 [35]: 800 nM

SMILES: CN(C)CCCOc1cnc(-c2cccc(Cn3nc(-c4cc(F)cc(F)c4)ccc3=O)c2)nc1
- logD [1]: 3

SMILES: Cc1cnc(-c2cccc(Cn3nc(-c4cc(F)cc(F)c4)ccc3=O)c2)[nH]1
- IC50 [35]: 5300 nM

SMILES: N#Cc1cccc(-c2ccc(=O)n(Cc3cccc(-c4ncc(OCCN5CCOCC5)cn4)c3)n2)c1
- IC50 [35]: 1 nM
- IC50 [36]: 34 nM
- clearance [5]: 35 mL/min/kg
- bioavailability [6]: 35%

SMILES: CN(C)CCCOc1cnc(-c2cccc(Cn3nc(-c4cccc(C#N)c4)ccc3=O)c2)nc1
- clearance [5]: 102 mL/min/kg
- bioavailability [6]: 32%
- logD [1]: 2.4
